Experimental findings from US10570129B2 (Zoetis Services LLC, priority 2015, dated 2020) are described below.

Read-outs that look alike come from different tables or passages of the source. Bounds are passed on as bounds.

In one assay the test system is Haemonchus contortus L3. The experiment in a line: microbe, parasite or virus in culture. It is filed as cell-based. Conditions: for minimal effective concentration: Haemonchus contortus, 96 h, read-out: HcL3 Minimal Effective Concentration (MEC).
Another assay concerns D. immitis microfilariae. Put plainly: Dirofilaria immitis, microfilariae (DiMF) in vitro motility assay. It is filed as cell-based. The following applies: for minimal effective concentration: Dirofilaria immitis, 72 h, read-out: DiMF minimally effective dose (MEC).

For `N#Cc1ccc(/C=C/CN2CCc3c(c4cc(F)ccc4n3C(=O)NCc3ccnc(Cl)c3)C2)cc1` [Example 168, (E)-N-((2-chloropyridin-4-yl)methyl)-2-(3-(4-cyanophenyl)allyl)-8-fluoro-1,2,3,4-tetrahydro-5H-pyrido[4,3-b]indole-5-carboxamide], the minimal effective concentration with Haemonchus contortus L3 is 0.5 µM; in the assay on D. immitis microfilariae it was 10 µM.

For the compound `O=C(NCc1ccnc(Cl)c1)n1c2c(c3c(Cl)cccc31)CN(C/C=C/c1ccc(OC(F)(F)F)cc1)CC2` [Example 222, (E)-9-chloro-N-((2-chloropyridin-4-yl)methyl)-2-(3-(4-(trifluoromethoxy)-phenyl)allyl)-1,2,3,4-tetrahydro-5H-pyrido[4,3-b]indole-5-carboxamide], the results for the minimal effective concentration in the assay on Haemonchus contortus L3 and in the assay on D. immitis microfilariae were more than 100 µM and 10 µM, respectively.

With `N#Cc1ccc(/C=C/CN2CCc3c(c4c(OC(F)(F)F)cccc4n3C(=O)NCc3ccnc(Cl)c3)C2)cc1` [Example 352, (E)-N-((2-chloropyridin-4-yl)methyl)-2-(3-(4-cyanophenyl)allyl)-9-(trifluoromethoxy)-1,2,3,4-tetrahydro-5H-pyrido[4,3-b]indole-5-carboxamide], the values for the minimal effective concentration in the assay on Haemonchus contortus L3 and in the assay on D. immitis microfilariae were 33 µM and 5.7 µM, respectively.

In the case of `O=C(NCc1ccnc(F)c1)n1c2c(c3ccc(OC(F)(F)F)cc31)CN(C/C=C/c1cc(F)cc(Cl)c1)CC2` [Example 380, (E)-2-(3-(3-chloro-5-fluorophenyl)allyl)-N-((2-fluoropyridin-4-yl)methyl)-7-(trifluoromethoxy)-1,2,3,4-tetrahydro-5H-pyrido[4,3-b]indole-5-carboxamide], the minimal effective concentration in the assay on Haemonchus contortus L3 is more than 100 µM; in the assay on D. immitis microfilariae it was 33 µM.

For `O=C(NCc1ccnc(Cl)c1)n1c2c(c3c(C(F)(F)F)cccc31)CN(C/C=C/c1ccc(F)cc1)CC2` [Example 161, (E)-N-((2-chloropyridin-4-yl)methyl)-2-(3-(4-fluorophenyl)allyl)-9-(trifluoromethyl)-1,2,3,4-tetrahydro-5H-pyrido[4,3-b]indole-5-carboxamide], the minimal effective concentration in the assay with Haemonchus contortus L3 was determined as 2.1 µM; in the assay with D. immitis microfilariae, 10 µM.

Consider `O=C(NCc1ccnc(F)c1)n1c2c(c3cc(F)c(Cl)cc31)CN(C/C=C/c1ccc(Cl)c(F)c1)CC2` [Example 309, (E)-7-chloro-2-(3-(4-chloro-3-fluorophenyl)allyl)-8-fluoro-N-((2-fluoropyridin-4-yl)methyl)-1,2,3,4-tetrahydro-5H-pyrido[4,3-b]indole-5-carboxamide], for which the minimal effective concentration in the assay with Haemonchus contortus L3 is 0.3 µM; in the assay with D. immitis microfilariae it was 1.8 µM.

As to `Cc1cc2c(cc1Br)c1c(n2C(=O)NCc2ccnc(Cl)c2)CCN(C/C=C/c2ccc(Cl)cc2)C1` [Example 194, (E)-8-bromo-2-(3-(4-chlorophenyl)allyl)-N-((2-chloropyridin-4-yl)methyl)-7-methyl-1,2,3,4-tetrahydro-5H-pyrido[4,3-b]indole-5-carboxamide], the minimal effective concentration came out at 0.4 µM in the assay on Haemonchus contortus L3 and 5.7 µM with D. immitis microfilariae.

Take `O=C(NCc1ccnc(F)c1)n1c2c(c3cc(Cl)ccc31)CN(C/C=C/c1ccc(F)c(F)c1)CC2` [Example 259, (E)-8-chloro-2-(3-(3,4-difluorophenyl)allyl)-N-((2-fluoropyridin-4-yl)methyl)-1,2,3,4-tetrahydro-5H-pyrido[4,3-b]indole-5-carboxamide]: the minimal effective concentration worked out at 0.1 µM in the assay with Haemonchus contortus L3 and 3.3 µM in the assay on D. immitis microfilariae.

As for `COc1ccc(/C=C/CN2CCc3c(c4ccc(OC(F)(F)F)cc4n3C(=O)NCc3ccnc(Cl)c3)C2)cc1` [Example 358, (E)-N-((2-chloropyridin-4-yl)methyl)-2-(3-(4-methoxyphenyl)allyl)-7-(trifluoromethoxy)-1,2,3,4-tetrahydro-5H-pyrido[4,3-b]indole-5-carboxamide], the values for the minimal effective concentration with Haemonchus contortus L3 and in the assay on D. immitis microfilariae were 1.3 µM and 7.6 µM, respectively.

On to `O=C(NCc1ccnc(F)c1)n1c2c(c3cc(-c4ccc(Cl)cc4)ccc31)CN(C/C=C/c1ccc(Cl)cc1)CC2` [Example 461, (E)-8-(4-chlorophenyl)-2-(3-(4-chlorophenyl)allyl)-N-((2-fluoropyridin-4-yl)methyl)-1,2,3,4-tetrahydro-5H-pyrido[4,3-b]indole-5-carboxamide], for which the values for the minimal effective concentration with Haemonchus contortus L3 and with D. immitis microfilariae were 33 µM and more than 100 µM, respectively.

Turning to `N#Cc1ccc(/C=C/CN2CCc3c(c4cc(Br)ccc4n3C(=O)NCc3ccnc(Cl)c3)C2)cc1F` [Example 180, (E)-8-bromo-N-((2-chloropyridin-4-yl)methyl)-2-(3-(4-cyano-3-fluorophenyl)allyl)-1,2,3,4-tetrahydro-5H-pyrido[4,3-b]indole-5-carboxamide], the minimal effective concentration in the assay on Haemonchus contortus L3 was 0.5 µM; in the assay on D. immitis microfilariae, more than 100 µM.

Consider `O=C(NCc1ccnc(Cl)c1)N1c2ccc(Cl)cc2C2CN(C/C=C/c3ccc(Cl)cc3)CCC21` (stereo not shown) [Example 516, (E)-8-chloro-2-(3-(4-chlorophenyl)allyl)-N-((2-chloropyridin-4-yl)methyl)-1,2,3,4,4a,9b-hexahydro-5H-pyrido[4,3-b]indole-5-carboxamide], for which the “HcL3 Minimal Effective Concentration (MEC)” value in the assay with Haemonchus contortus L3 is 0.3 µM. Moreover, the “DiMF minimally effective dose (MEC)” value in the assay with D. immitis microfilariae turned out to be 10.0 µM.

As for `O=C(NCc1ccnc(Cl)c1)n1c2c(c3c(C(F)(F)F)cccc31)CN(C/C=C/c1ccc(Cl)cc1)CC2` [Example 157, (E)-2-(3-(4-chlorophenyl)allyl)-N-((2-chloropyridin-4-yl)methyl)-9-(trifluoromethyl)-1,2,3,4-tetrahydro-5H-pyrido[4,3-b]indole-5-carboxamide], the minimal effective concentration came out at 3.8 µM in the assay on Haemonchus contortus L3 and 11.9 µM with D. immitis microfilariae.

For `N#Cc1ccc2c3c(n(C(=O)NCc4ccnc(Cl)c4)c2c1)CCN(C/C=C/c1ccncc1)C3` [Example 37, (E)-N-((2-chloropyridin-4-yl)methyl)-7-cyano-2-(3-(pyridin-4-yl)allyl)-1,2,3,4-tetrahydro-5H-pyrido[4,3-b]indole-5-carboxamide], the minimal effective concentration in the assay on Haemonchus contortus L3 is more than 100 µM; in the assay with D. immitis microfilariae it was 33 µM.

For the compound `COc1cc2c3c(n(C(=O)NCc4ccnc(Cl)c4)c2cc1C#N)CCN(C/C=C/c1ccc(Cl)cc1)C3` [Example 493, (E)-2-(3-(4-chlorophenyl)allyl)-N-((2-chloropyridin-4-yl)methyl)-7-cyano-8-methoxy-1,2,3,4-tetrahydro-5H-pyrido[4,3-b]indole-5-carboxamide], the minimal effective concentration in the assay with Haemonchus contortus L3 is 1 µM; in the assay on D. immitis microfilariae, 5.7 µM.

Consider `N#Cc1ccc(/C=C/CN2CCc3c(c4cc(F)c(C#N)cc4n3C(=O)NCc3ccnc(Cl)c3)C2)cc1` [Example 173, (E)-N-((2-chloropyridin-4-yl)methyl)-7-cyano-2-(3-(4-cyanophenyl)allyl)-8-fluoro-1,2,3,4-tetrahydro-5H-pyrido[4,3-b]indole-5-carboxamide], for which the minimal effective concentration in the assay on Haemonchus contortus L3 is 18.2 µM; in the assay with D. immitis microfilariae it was more than 100 µM.

As for “(E)-8-cyano-2-(3-(2,4-difluorophenyl)allyl)-N-((2-(trifluoromethyl)pyridin-4-yl)methyl)-1,2,3,4-tetrahydro-5H-pyrido[4,3-b]indole-5-carboxamide [Example 129]”, the “HcL3 Minimal Effective Concentration (MEC)” value with Haemonchus contortus L3 was 0.05 µM. The “DiMF minimally effective dose (MEC)” value in the assay with D. immitis microfilariae (decrease in microfilariae motility by subjective visual assessment, observed at 72 hours) worked out at 3.5 µM.
